Laboratory results published in article PMC13095408, “DBeQ derivative targets vacuolar protein sorting 4 functions in cancer cells and suppresses tumor growth in mice” (The Journal of Pharmacology and Experimental Therapeutics, 2025).
≈ marks a conversion by molar mass, not a printed value.

Columns and labels:
[1] = tested on: GFP-CHMP4B- and mCherry-LGALS3-expressing U2OS cells; test: mCherry-LGALS3 accumulation, endolysosomal membrane integrity (HCM); format: cell-based; conditions: 2 μM 4-107, starved, 2 hours
Procedure: Live-cell fluorescence imaging and analysis were performed using the CellInsight CX7 LZR high-content screening platform with Onstage Incubator (Thermo Scientific; 37 °C, 5% CO2, 20% O2, 60% humidity). SM was acclimatized at 37 °C and 5% CO2 for at least 30 minutes prior to all experiments for pH equilibration. For cell-based VPS4i screen, U2OS cells stably expressing N-terminal GFP-tagged charged multivesicular body protein 4B (GFP-CHMP4B) were cultured in black clear-bottom 96-well plates (Corning; 3603) at a density of 6000 cells/well. Cells were stained with Hoechst 33342 (1:1000) for 15 minutes at 37 °C, rinsed with 1× Dulbecco's phosphate-buffered saline (DPBS), and treated with SM containing 0.1% DMSO or 1 μM test compounds. Plates were then scanned using the 20× objective for 1 hour with ≥100 cells/well across 6 fields/well. Fluorescence intensity of GFP-CHMP4B foci per cell for each compound was normalized to that of 4-107. For all other assays, the cells were cultured overnight in black glass-bottom 96-well plates (Cellvis; P96-1.5H-N) then stained, rinsed, and treated with SM containing the indicated compounds (0.1% DMSO or 0.1% DMSO/0.1% ethanol [vehicle] final). Plates were scanned using the 20× NA .70 objective at the indicated intervals with ≥ 300 cells/well across 3 fields/well. […]

U2OS cells = test: Live-cell quantification of YOYO-3-positive dead cells; format: cell-based
Procedure: To measure caspase activity, cells cultured in white opaque-bottom 384-well plates were incubated in the presence or absence of 1 μg/mL Dox for 24 hours. Caspase-Glo 8 or 3/7 reagent was then added 1:1 and allowed to incubate for 90 minutes at RT followed by luminescence measurement using the CLARIOstar microplate reader (BMG LABTECH). Signals had background luminescence subtracted and then normalized to the respective Dox-untreated i-GFP-expressing parental controls to obtain relative CASP8-like LETDase or CASP3/7-like DEVDase activities. For live-cell quantification, the cells seeded on black clear-bottom 96-well plates were incubated with the indicated compounds (0.1% to 0.3% DMSO final) in the presence of 100 nM YOYO-3, a cell-impermeant DNA-binding fluorescent probe that stains membrane integrity-impaired, dead cells. […] Phase and fluorescence images were obtained at the indicated intervals using the IncuCyte S3 Live-Cell Analysis System (Essen BioScience; 10× objective) and then analyzed using the Cell-by-Cell Analysis module (Essen BioScience; 9600-0031) of IncuCyte S3 Software (Essen BioScience; Version 2019B Rev2). To quantify the percentage of dead GFP-expressing cells, the GFP and YOYO-3 double-positive cell population was divided by the total GFP-positive cell population.

Thermodynamic solubility = format: physicochemical; conditions: FaSSIF-V2 buffer, thermodynamic from solid; In FaSSIF-V2, pH 6.5

In the case of `COc1cccc2c(NCc3ccccc3)nc(NCc3ccccc3)nc12` [Compound 4-107, N^2,N^4-dibenzyl-8-methoxyquinazoline-2,4-diamine], the “mCherry-LGALS3 signals (endolysosomal membrane integrity)” value [1] is reported as “increase in mCherry-LGALS3 signals”, the “cell death (YOYO-3-positive dead cells)” value (U2OS cells; 2 μM 4-107, WT U2OS cells) is reported as “induced cell death in a time-dependent manner” and the “enhanced temporal sensitivity of VPS4A- and VPS4B-deficient cells compared with WT cells” value (U2OS cells; 2 μM 4-107, crVPS4A, crVPS4B vs WT U2OS) is reported as “about 12 hours”. It also gave a solubility thermodynamic at 16 h (Thermodynamic solubility) of 17 µM (≈ 6.3 µg/mL).
